This passage reports Ki results from BindingDB's records for doi:10.1124/jpet.102.039867 (Institut De Recherches Servier, 2002).

In the experiment the target is T1, Alpha-2C adrenergic receptor (Homo sapiens, UniProt P18825).
T1 sequence (P18825 whole entry): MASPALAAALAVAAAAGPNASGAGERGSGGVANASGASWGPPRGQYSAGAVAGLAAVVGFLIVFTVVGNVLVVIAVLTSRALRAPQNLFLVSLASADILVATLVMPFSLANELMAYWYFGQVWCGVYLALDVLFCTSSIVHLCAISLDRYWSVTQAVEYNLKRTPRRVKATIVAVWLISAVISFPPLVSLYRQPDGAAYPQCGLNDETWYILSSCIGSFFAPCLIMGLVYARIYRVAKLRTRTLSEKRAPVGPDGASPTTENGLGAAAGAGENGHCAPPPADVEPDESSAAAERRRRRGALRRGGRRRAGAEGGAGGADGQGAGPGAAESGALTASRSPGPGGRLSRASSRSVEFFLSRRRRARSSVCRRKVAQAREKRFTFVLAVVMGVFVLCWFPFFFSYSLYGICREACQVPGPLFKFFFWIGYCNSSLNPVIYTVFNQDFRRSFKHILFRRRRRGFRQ

SMILES strings stand for the structures.

Broadly, the Ki is the equilibrium dissociation constant of an inhibitor or competing ligand from its target. Low readings indicate a stronger hold on the target, high ones a looser hold on the target. In the case of `Oc1ccc2[nH]cc(CCCCN3CC=C(c4ccccc4)CC3)c2c1`, the affinity corresponds to a Ki of 0.00178 µM.

For the molecule `CCN(CC)C(=O)N[C@H]1C[C@@H]2c3cccc4[nH]cc(c34)C[C@H]2N(C)C1`, the affinity, expressed as Ki, was 0.00076 µM.

With `CCCN(CCC)CCc1cccc2c1CC(=O)N2`, the Ki was determined as 1.2 µM.

Molecule `CN(C)C1CCc2cc(O)c(O)cc2C1` (stereo not given) [(6,7-Dihydroxy-1,2,3,4-tetrahydro-naphthalen-2-yl)-dimethyl-ammonium] came in with a Ki of 0.00603 µM. The same measure for `CN1CCc2cccc3c2[C@H]1Cc1ccc(O)c(O)c1-3` [APOKYN]: 0.0363 µM; for `C=CCN1CCc2nc(N)sc2CC1` [B-HT 920]: 0.0427 µM; for `C=CCN1CC(C(=O)N(CCCN(C)C)C(=O)NCC)CC2c3cccc4[nH]cc(c34)CC21` (stereo not given) [NSC_54746]: 0.0224 µM. As for `CCCN1C[C@H](CSC)C[C@@H]2c3cccc4[nH]cc(c34)C[C@H]21` [Permax], the Ki stood at 0.0676 µM. The same measure for `CCCNC1CCc2nc(N)sc2C1` (stereo not given) [Pramipexole]: greater than 10 µM; for `CCCN1CCC[C@@H]2Cc3nc(N)ncc3C[C@H]21` [Quinerolane]: greater than 10 µM.
